Our source for the Activity values is ChEMBL document CHEMBL1157942, “Bioactive diterpenes from the fruits of Detarium microcarpum” (2006).

The assay concerns Cladosporium cucumerinum. Nature of the assay: Antifungal activity against Cladosporium cucumerinum after 3 days. In kind it is functional.
As to `C/C(=C/C(=O)O)CC[C@]1(C)[C@@H](C)CC[C@]2(C)[C@H]1CC[C@@H](O)[C@@]2(C)O`, the Activity was 10 µg.
In turn, `CC1=CC(=O)C[C@H]2[C@](C)(CC/C(C)=C/C(=O)O)[C@@H](C)CC[C@]12C` registered an Activity of over 100 µg.
For the molecule `C=C1CC[C@@H]2C(C)(C)CCC[C@@]2(C)[C@@H]1CC/C(C)=C/C(=O)O` [COPALIC ACID], the Activity was over 100 µg.
`CC1=CC(=O)C[C@H]2[C@](C)(CC/C(C)=C/C(=O)O)[C@H](C)CC[C@@]12C` returned an Activity of 100 µg.
On to `C/C(=C\C(=O)O)CC[C@@]1(C)[C@H]2CC[C@H]3O[C@@]3(C)[C@@]2(C)CC[C@@H]1C`, for which the Activity turned out to be 10 µg.
`C/C(=C\C(=O)O)CC[C@]1(C)[C@H](C)CC[C@]2(C)[C@H]1CC[C@H](O)[C@@]2(C)O`: the Activity is over 100 µg.
Then `Clc1ccc(COC(Cn2ccnc2)c2ccc(Cl)cc2Cl)c(Cl)c1` (configuration not stated) [MICONAZOLE], with 1 µg.
